From patent US6828342B2, “Nitric esters and nitrate salts of specific drugs” (priority 1999, dated 2004) come the findings set out here.

Counter-ions that a name gives are not always drawn.

Series [1] deals with phenol red in the tracheal secretion. The experiment in a line: Mucolitic activity in mice: phenol red in the tracheal secretion. In kind it is in vivo. As to the method:
Mucolitic Activity in Mice of Ambroxol Nitrate and Ambroxol Hydrochloride
Mucolitic activity in male mice was evaluated according to the Method of Engler and Zselenyi, J. Pharm. Methods 11, 151, 1984. By this method it is determined the quantity of phenol red in the tracheal secretion. The animals were previously administered i.p. at a dose of 500 mg/Kg with the dye dissolved in physiologic solution. 3 groups of mice (weight 18±2 g), of 10 animal each, were treated i.p. with the dye. One group was the control group. Each of the two treated groups received, ten minutes before the above injection, an i.p. injection of 264 micromoles/Kg of Ambroxol nitrate or Ambroxol hydrochloride, respectively. 30 minutes after the phenol red injection, the animals were sacrificed. The trachea was freed from the sorrounding tissues, dissected and washed for 30 minutes in 3 ml of physiologic solution. 0.1 ml of 1 M sodium hydroxyde were then added to the physiologic solution. The washings were centrifuged for 15 minutes at 3000 rpm. A spectrophotometric assay was performed on the supernatant in order to determine the concentration of phenol red in the physiologic solution. Mucolitic activity was determined as % variation of absorbance of the sample in the confront of that of the control group, assumed to be 100%.

The subject of series [2] is histamine-induced bronchoconstriction. The experiment in a line: Antihistaminic activity: experimental bronchoconstriction by histamine in the guinea pig. Conditions: result in words.
The subject of series [3] is cough strokes caused by citric acid aerosol. The experiment in a line: Anti-tussive activity: cough strokes caused by citric acid aerosol in the guinea pig. In kind it is in vivo. Conditions: 110 micromoles/Kg i.p.; for cough strokes (%): citric acid 7.5% aerosol, 30 minutes before aerosol, cough strokes over 10 minutes referred to control = 100%; for Antitussive potency compared with the corresponding hydrochlorides: result in words. As to the method: Anti-tussive Activity in the Guinea Pig of Dextromethorphan Hydrochloride, Dextromethorphan Nitrate, Dextrorphan Hydrochloride and Dextrorphan Nitrate
Guinea pigs (weight: 430+20) were treated as described by Braga et Al. Arzneim. Forsch./Drug Res. 43, 550, 1993.
In this pharmacological experiment 5 groups of 8 animals each were formed. One group was not treated and was the control group.
Each animal was placed in a cilindrical glass container having one tubing through each of the two circular flat surfaces. Said tubing were, respectively, for the aerosol inlet and outlet. The outlet tubing is connected to a polygraphic system.
The aerosol was formed from a solution 7.5% by weight of citric acid in water.
The air variation inside the glass container was registered before and after a cough stroke caused by the aerosol. One hour later Dextromethorphan hydrochloride, Dextromethorphan nitrate, Dextrorphan hydrochloride and dextrorphan nitrate were i.p. administered in a physiologic solution at a dose of 110 micromoles/Kg. 30 minutes after the injection the animals were treated with the aerosol. It was then registered the number of cough strokes for a time of 10 minutes. In the following Table III are reported the average response obtained from each treated group, referred to that of the control group, made 100%.

The test system of series [4] is bronchoconstrictive response induced by capsaicin. The experiment in a line: Experimental bronchoconstriction induced by capsaicin in the guinea pig (tidal air variation, Konzett apparatus). In kind it is in vivo. Conditions: 0.3 nmoles/min i.v., result in words. As to the method: Each groups consisted of eight animals. […] For a total 15 minutes, starting from 5 minutes before capsaicin injection to 10 minutes after) Salbutamol (0.3 nmoles/min), or the corresponding nitrate salt (0.3 nmoles/min) or only the carrier were administered by intravenous infusion were administered to each group. […] The heart frequency was determined by an electrocardiographic device, according to the usual methods.

Another series has as its system heart frequency. The experiment in a line: Heart frequency (tachycardia) by electrocardiographic device in the capsaicin bronchoconstriction study. The class given is in vivo. Conditions: guinea pig; 0.3 nmoles/min i.v. infusion; heart frequency as percent with respect to the control (carrier 188 ±7 beats per minute = 100); Nitrate Salt. As to the method: Each groups consisted of eight animals. […] For a total 15 minutes, starting from 5 minutes before capsaicin injection to 10 minutes after) Salbutamol (0.3 nmoles/min), or the corresponding nitrate salt (0.3 nmoles/min) or only the carrier were administered by intravenous infusion were administered to each group.
The heart frequency was determined by an electrocardiographic device, according to the usual methods.

For the compound `Nc1c(Br)cc(Br)cc1CNC1CCC(O)CC1` (centres unmarked) [Ambroxol hydrochloride, reference compound], the “Mucolitic activity (%)” value in series [1] (male mice, 264 micromoles/Kg i.p. ten minutes before phenol red 500 mg/Kg i.p., % variation of absorbance versus control group = 100%, hydrochloride) turned out to be 30%.
Consider `Nc1c(Br)cc(Br)cc1CNC1CCC(O)CC1` (centres unmarked) [Ambroxol nitrate, Ambroxol Nitrate Salt], for which the “Mucolitic activity compared with the corresponding hydrochloride” value in series [1] (mice, 264 micromoles/Kg i.p., result in words) was “higher than that of the corresponding hydrochloride”.
For the compound `O=C(O)COCCN1CCN(C(c2ccccc2)c2ccc(Cl)cc2)CC1` (centres unmarked) [Cetirizine nitrate, Cetirizine Nitrate Salt], the “Antihistamine activity compared with Cetirizine hydrochloride” value in series [2] is on record as “improved antihistamine activity”.
Turning to `COc1ccc2c(c1)[C@@]13CCCC[C@H]1[C@@H](C2)N(C)CC3` [Dextromethorphan hydrochloride, reference compound], the “cough strokes (%)” value in series [3] (hydrochloride) was 30%.
In the case of `COc1ccc2c(c1)[C@@]13CCCC[C@H]1[C@@H](C2)N(C)CC3` [Dextromethorphan nitrate, Dextromethorphan Nitrate Salt], the “Antitussive potency compared with the corresponding hydrochlorides” value in series [3] is “more potent antitussive agents than the corresponding hydrochlorides”. Moreover, in series [3] (Nitrate Salt), the “cough strokes (%)” value came to 0%.
In the case of `CN1CC[C@]23CCCC[C@H]2[C@H]1Cc1ccc(O)cc13` [Dextrorphan hydrochloride, reference compound], in series [3] (hydrochloride), the “cough strokes (%)” value was determined as 40%.
For `CN1CC[C@]23CCCC[C@H]2[C@H]1Cc1ccc(O)cc13` [Dextrorphan nitrate, Dextrorphan Nitrate Salt], the “Antitussive potency compared with the corresponding hydrochlorides” value in series [3] was “more potent antitussive agents than the corresponding hydrochlorides”. For the same compound, in series [3] (Nitrate Salt), the “cough strokes (%)” value was found to be 0%.
`CC(C)(C)NCC(O)c1ccc(O)c(CO)c1` (centres unmarked) [Salbutamol · HNO3, Salbutamol Nitrate Salt]: the “Inhibition of the bronchoconstrictive response induced by capsaicin, compared with Salbutamol” value in series [4] was “as effective as Salbutamol”. In the series on heart frequency, the “Tachycardia (%)” value was 97%.
